Target: T1, KRAS WT (Homo sapiens, UniProt P01116)
T1 construct: made in house; host or cells: E. coli BL21 (DE3)
Experiment: HTRF assay, interaction of GST-tagged K-Ras with His-tagged hSOS1 (KRAS wildtype)
Assay type: biochemical
Settings: <500 nM, read-out: Inhibition of KRAS WT (IC50)
From the text: This assay can be also used to assess a selective inhibition or reduction of signaling output of a mutant Ras protein relative to a wildtype, or relative to a different mutant Ras protein. For example, the equilibrium interaction of wildtype KRAS or K-Ras mutant (e.g., wildtype or a mutant thereof) with SOS1 (e.g., hSOS1) can be assessed as a proxy or an indication for the ability of a subject compound to bind and inhibit Ras protein. The HTRF assay detects from (i) a fluorescence resonance energy transfer (FRET) donor (e.g., antiGST-Europium) that is bound to GST-tagged K-Ras mutant to (ii) a FRET acceptor (e.g., anti-6His-XL665) bound to a His-tagged hSOS1.
The assay buffer can contain ˜5 mM HEPES pH 7.4, ˜150 mM NaCl, ˜1 mM DTT, 0.05% BSA and 0.0025% (v/v) Igepal. A Ras working solution is prepared in an assay buffer containing typically a suitable amount of the protein construct (e.g., GST-tagged K-Ras mutant) and the FRET donor (e.g., antiGST-Eu(K) from Cisbio, France). A SOS1 working solution is prepared in an assay buffer containing suitable amount of the protein construct (e.g., His-hSOS1) and the FRET acceptor (e.g., anti-6His-XL665 from Cisbio, France). A suitable amount of the protein construct will depend on the range of activity or range of IC50 values being detected or under investigation. For detecting an IC50 within a range of 500 nM, the protein constructs of the same range of molarity can be utilized.
A fixed volume of DMSO with or without test compound is transferred into a 384-well plate. Ras working solution is added to all wells of the test plate. SOS1 working solution is added to all wells except for those that are subsequently filled with inhibitor control solution. Upon incubation for about 10 minutes or longer, the fluorescence is measured with a M1000Pro plate reader (Tecan) using HTRF detection (excitation 337 nm, emission 1: 620 nm, emission 2: 665 nm). Compounds are tested in duplicate at different concentrations (for example, 10 μM, 2.5 μM, 0.63 μM, 0.16 μM, 0.04 μM, 0.01 μM test compound). The ratiometric data (i.e., emission 2 divided by emission 1) is used to calculate IC50 values against Ras using GraphPad Prism (GraphPad software). Signaling output measured in terms of IC50 values can be obtained and a ratio of IC50 against one mutant relative to another mutant can be calculated. For instance, a selective reduction of K-Ras G12S signaling output can be evidenced by a ratio greater than one. In particular, a selective reduction of K-Ras G12S signaling relative to K-Ras WT signaling is evidenced if the ratio of IC50 (against K-Ras WT) to IC50 (against K-Ras G12S) is greater than 1.

T1 sequence (P01116 1-188 isoform P01116-2): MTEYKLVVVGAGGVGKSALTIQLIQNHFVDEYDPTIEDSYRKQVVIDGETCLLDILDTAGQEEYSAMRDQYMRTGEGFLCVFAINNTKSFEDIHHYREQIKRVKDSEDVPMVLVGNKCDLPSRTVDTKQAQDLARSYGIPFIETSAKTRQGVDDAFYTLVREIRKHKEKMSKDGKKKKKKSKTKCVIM

IC50 | Compound
< 500 nM | Cc1cn(C(=O)N2CC[C@@H](N3C[C@H](C)Oc4cc(-c5cc(N)c(F)c(C)c5C(F)(F)F)c(F)c5nc(OC[C@@]67CCCN6C[C@H](F)C7)nc3c45)[C@H]2C)c(C)n1 [Compound 415, ((2R,3R)-3-((S)-9-(5-amino-4-fluoro-3-methyl-2-(trifluoromethyl)phenyl)-10-fluoro-2-(((2R,7aS)-2-fluorotetrahydro-1H-pyrrolizin-7a(5H)-yl)methoxy)-6-methyl-5,6-dihydro-4H-[1,4]oxazepino [5,6,7-de]quinazolin-4-yl)-2-methylpyrrolidin-1-yl)(2,4-dimethyl-1H-imidazol-1-yl)methanone]
< 500 nM | C[C@H](O)[C@H]1COc2c(Cl)c(-c3ccc(F)c4sc(N)c(C#N)c34)c(F)c3nc(OC[C@@]45CCCN4C[C@H](F)C5)nc(c23)N1C1CC(CN(C)C(=O)n2ccnc2)C1 (stereo partly drawn) [Compound 482, N-((3-((5R)-9-(2-amino-3-cyano-7-fluorobenzo[b]thiophen-4-yl)-8-chloro-10-fluoro-2-(((2R,7aS)-2-fluorotetrahydro-1H-pyrrolizin-7a(5H)-yl)methoxy)-5-((S)-1-hydroxyethyl)-5,6-dihydro-4H-[1,4]oxazepino [5,6,7-de]quinazolin-4-yl)cyclobutyl)methyl)-N-methyl-1H-imidazole-1-carboxamide]
< 500 nM | CC(CN(C)C(=O)n1ccnc1)N1c2nc(OC[C@@]34CCCN3C[C@H](F)C4)nc3c(F)c(-c4ccc(F)c5sc(N)c(C#N)c45)c(Cl)c(c23)OC[C@@H]1[C@H](C)O (stereo partly drawn) [Compound 467, N-(2-((5R)-9-(2-amino-3-cyano-7-fluorobenzo[b]thiophen-4-yl)-8-chloro-10-fluoro-2-(((2R,7aS)-2-fluorotetrahydro-1H-pyrrolizin-7a(5H)-yl)methoxy)-5-((S)-1-hydroxyethyl)-5,6-dihydro-4H-[1,4]oxazepino[5,6,7-de]quinazolin-4-yl)propyl)-N-methyl-1H-imidazole-1-carboxamide]
< 500 nM | C[C@H]1COc2c(Cl)c(-c3ccc(F)c4sc(N)c(C#N)c34)c(F)c3nc(OC[C@@]45CCCN4C[C@H](F)C5)nc(c23)N1C[C@@H]1CN(C(=O)n2ccnc2)[C@@H]1C1(C)CC1 (single isomer, unassigned) [Compound 473]
< 500 nM | CC1([C@@H]2[C@H](CN3CCOc4c(Cl)c(-c5ccc(F)c6sc(N)c(C#N)c56)c(F)c5nc(OC[C@@]67CCCN6C[C@H](F)C7)nc3c45)CN2C(=O)n2ccnc2)CC1 [Compound 485, 4-(4-(((2S,3R)-1-(1H-imidazole-1-carbonyl)-2-(1-methylcyclopropyl)azetidin-3-yl)methyl)-8-chloro-10-fluoro-2-(((2R,7aS)-2-fluorotetrahydro-1H-pyrrolizin-7a(5H)-yl)methoxy)-5,6-dihydro-4H-[1,4]oxazepino [5,6,7-de]quinazolin-9-yl)-2-amino-7-fluorobenzo[b] thiophene-3-carbonitrile]
< 500 nM | N#Cc1cn(C(=O)N2CC(CN3CCOc4c(Cl)c(-c5ccc(F)c6sc(N)c(C#N)c56)c(F)c5nc(OC[C@@]67CCCN6C[C@H](F)C7)nc3c45)C2)cn1 [Compound 478, 1-(3-((9-(2-amino-3-cyano-7-fluorobenzo[b]thiophen-4-yl)-8-chloro-10-fluoro-2-(((2R,7aS)-2-fluorotetrahydro-1H-pyrrolizin-7a(5H)-yl)methoxy)-5,6-dihydro-4H-[1,4]oxazepino[5,6,7-de]quinazolin-4-yl)methyl)azetidine-1-carbonyl)-1H-imidazole-4-carbonitrile]

Compound | IC50
CN1[C@H](C2CC2)[C@@H]1C(=O)N1CC(CN2CCOc3c(Cl)c(-c4ccc(F)c5sc(N)c(C#N)c45)c(F)c4nc(OC[C@@]56CCCN5C[C@H](F)C6)nc2c34)C1 (stereo partly drawn) [Compound 460, 2-amino-4-(8-chloro-4-((1-((2R,3R)-3-cyclopropyl-1-methylaziridine-2-carbonyl)azetidin-3-yl)methyl)-10-fluoro-2-(((2R,7aS)-2-fluorotetrahydro-1H-pyrrolizin-7a(5H)-yl)methoxy)-5,6-dihydro-4H-[1,4]oxazepino [5,6,7-de]quinazolin-9-yl)-7-fluorobenzo[b]thiophene-3-carbonitrile] | < 500 nM

Reference: patent publication US12606572B2, “Substituted heterocycles and uses thereof” (Kumquat Biosciences Inc., priority 2023, dated 2026)
